{"source": "patent US20240019437A1", "about": "“METHODS FOR THE DIAGNOSIS AND THE TREATMENT OF GRAFT-VERSUS-HOST DISEASE” (INSERM (INSTITUT NATIONAL DE LA SANTÉ ET DE LA RECHERCHE …, priority 2020, published 2024)", "molecular_target": "T1, CD73 (Homo sapiens, UniProt P21589)", "T1 construct": "Eight different CD73-expressing DP8α TREG clones were all separately co-cultured; endogenous in cells; host or cells: CD73-expressing DP8α Treg clones (human T cell clones)", "T1 sequence (P21589 27-549)": "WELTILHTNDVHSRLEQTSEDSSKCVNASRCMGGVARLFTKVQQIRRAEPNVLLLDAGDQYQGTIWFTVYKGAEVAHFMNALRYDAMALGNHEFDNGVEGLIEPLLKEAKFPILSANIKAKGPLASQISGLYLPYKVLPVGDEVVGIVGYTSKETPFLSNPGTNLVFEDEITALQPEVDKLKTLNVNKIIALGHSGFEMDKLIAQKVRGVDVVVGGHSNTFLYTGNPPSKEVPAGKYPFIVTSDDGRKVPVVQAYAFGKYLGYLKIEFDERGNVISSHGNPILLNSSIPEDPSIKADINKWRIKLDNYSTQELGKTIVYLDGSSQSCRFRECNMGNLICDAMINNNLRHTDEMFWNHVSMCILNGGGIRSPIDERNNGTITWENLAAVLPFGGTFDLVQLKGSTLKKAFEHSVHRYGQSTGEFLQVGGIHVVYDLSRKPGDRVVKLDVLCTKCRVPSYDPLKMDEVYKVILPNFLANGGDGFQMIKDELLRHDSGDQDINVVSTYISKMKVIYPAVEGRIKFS", "test": "Co-culture of CD73-expressing DP8α TREG clones with VPD-stained CD4+ T cells, with or without CD73 inhibitors; proliferation as percentage of VPD LOW CD4+ T cells", "format": "cell-based", "conditions": "1:1 co-culture, proliferation measured 6 days later; three concentrations per inhibitor; compared to no treatment", "data": [{"smiles": "Nc1ncnc2c1ncn2[C@@H]1O[C@H](COP(=O)([O-])CP(=O)(O)O)[C@@H](O)[C@H]1O.[Na+]", "note": "[Adenosine 5′-(α,β-methylene)diphosphate sodium salt]", "values": [{"measurement": "Effect on suppressive function of CD73-expressing DP8α TREG clones (inhibition of CD4+ T cell proliferation)", "result": "drastically impaired the suppressive function"}]}]}
